The test concerns C. neoformans ATCC 56991. Briefly: Checkerboard MIC assay, FICI. It counts as cell-based, Cryptococcus neoformans. The settings on record: combination with Compound 1. The text has this: The following assay was used to determine the minimum inhibitory concentration (MIC) and fractional inhibitory concentration index (FICI) for combinations of an antifungal agent and a glycopeptide antibacterial agent. This assay and methods for calculating FICI are well known in the art. See, for example, Eliopoulos, E. G. and R. Moellering, Jr. “Antimicrobial Combinations” in Antibiotics in Laboratory Medicine, edited by V. Lorian, 4th Ed., Williams & Wilkins, Baltimore, MD, pp. 330-396 (1996); […] et al., Antimicrobial Agents and Chemotherapy 47(4):1416-1418 (2003); or […] et al., Antimicrobial Agents and Chemotherapy 46(10):3323-3326 (2002). […] The MIC of the glycopeptide antibacterial agent determined from this experiment was used in FIC calculations. […]

Take `C[C@@H]1[C@H](O)[C@@H](C)/C=C/C=C/C=C/C=C/C=C/C=C/C=C/[C@H](O[C@@H]2O[C@H](C)[C@@H](O)[C@H](N)[C@@H]2O)C[C@@H]2O[C@](O)(C[C@@H](O)C[C@@H](O)[C@H](O)CC[C@@H](O)C[C@@H](O)CC(=O)O[C@H]1C)C[C@H](O)[C@H]2C(=O)O` [Amphotericin B]: the FICI was determined as 0.25.
Then `C[C@@H]1[C@H](O)[C@@H](C)/C=C/C=C/CC/C=C/C=C/C=C/C=C/C(O[C@H]2O[C@H](C)[C@@H](O)[C@H](N)[C@@H]2O)CC2O[C@](O)(CC(O)C(O)CCC(O)CC(O)CC(O)CC(=O)O[C@H]1C)CC(O)C2C(=O)O` (some centres unmarked) [Nystatin], with 0.5.
